Values joined by “and” are separate entries in the source; they are usually repeats but may differ in a detail not shown here. Equal entries are not always repeated. Blank lines part the entries; values can stand above or below the molecule they belong to.
Key:
[1] = Determination of photochemical quantum yield (365 nm irradiation, fluorescence of released fluorophore); assay type: physicochemical; conditions: for photochemical quantum yield (Φ) in the presence of Ca^2+: 10 mM CaCl2, 30 mM MOPS pH 7.2, 100 mM KCl; for photochemical quantum yield (Φ) in the presence of Ca^2+ / photochemical quantum yield (Φ) in the absence of Ca^2+: 365 nm; for photochemical quantum yield (Φ) in the absence of Ca^2+: 10 mM EGTA, 30 mM MOPS pH 7.2, 100 mM KCl; for enhancement in photochemical quantum yield upon Ca^2+ binding: presence vs absence of Ca^2+
Method: (§1) All measurements were taken at ambient temperature (23±2° C.). […] Spectroscopy was performed using 1-cm path length quartz or polymethacrylate cuvettes (Starna or Fisher). Absorption measurements were recorded on a Cary Model 100 spectrometer (Varian). Fluorescence measurements spectra were recorded on a Cary Eclipse fluorometer (Varian). Buffer pH was adjusted with KOH. Curve fitting was accomplished with GraphPad Prism 5.
Photochemistry was performed in 1-cm path length/3.5 mL quartz cuvettes (Starna) in a Luzchem LZC 4V photoreactor equipped with 365 nm UV lamps, a carousel, and a timer. The irradiation was determined by potassium ferrioxalate actinometry.^3 A solution of 60 mM K3Fe(C2O4)3 was irradiated using the photoreactor setup. Released Fe^2+ was determined by complexometry with 1,10 phenanthroline. Using the known photochemical quantum yield of this process, we determined the photon flux (I)=[…]. Samples (10 μM, 3.5 mL) were irradiated in either zero calcium buffer (30 mM MOPS pH 7.2, 10 mM EGTA, 100 mM KCl) or calcium-containing buffer (30 mM MOPS pH 7.2, 10 mM CaCl2, 100 mM KCl) and a small aliquot (30 μL) was removed and diluted 100-fold in matching buffer. The fluorescence of these samples was then measured (coumarin 402: λex/λem=402/447 nm; Tokyo Green compound S13: λex/λem=496/520 nm). The quantum yield (Φ, mol/ein) was determined by fitting a plot of fluorescence vs. irradiation time to a one-phase association described by equation 1: Ft=Fmax−Fmax(e^−IσΦt) (1) where Fmax=maximal fluorescence, t=time (min), Ft=fluorescence at time t, I=irradiation (ein/min·cm^2), and σ=decadic extinction coefficient (cm^2/mol; 1000-fold higher than the value with units of M^−1 cm^−1 based on cuvette geometry). For compound 402 we determined Φ=4.8±0.2% (mean±SE) in the presence of 10 mM Ca^2+ and Φ=0.0079±0.0003% in the presence of 10 mM EGTA (FIG. 19B). For compound S13 we found Φ=1.63±0.05% in the presence of 10 mM Ca^2+ and Φ=0.0110±0.0004% in the presence of 10 mM EGTA (FIG. 20A).

[2] = Absorption spectrum in buffers containing varying [Ca^2+]; assay type: physicochemical
Excerpt: The absorption spectrum of 402 was first examined in buffers containing varying [Ca^2+] (FIG. 19A). […] A small (<5%) but significant increase in absorption around 350 nm was also observed when calcium ion concentration is raised. However, the coumarin moiety dominates absorption in the UV with an extinction coefficient (e)=2.4×10^4 M^−1 cm^−1 at 350 nm. These absorbance changes indicate that chelation of calcium causes a switch from the colored quinoid form to the UV-absorbing aromatic form (FIG. 3).
as §1

cultured neurons = assay: Light-gated integration of Ca^2+ evoked by electrical stimulation; assay type: cell-based, rat; conditions: for rate k of increase in cellular fluorescence versus irradiation time: n=20
Method: The present compound was then utilized to measure calcium ion changes in neurons evoked by electrical activity. Low-affinity reversible Ca^2+ indicators are advantageous for use in biological systems as their low buffering capacity preserves native calcium ion dynamics. Nevertheless, poor signal-to-background ratios of such indicators may restricts their utility to subcellular compartments undergoing extremely high calcium flux (e.g., dendritic spines). […] Cells were incubated with AM ester 403 and subjected to the photoactivation imaging protocol. In one population of cells neuronal action potential firing was elicited by field stimulation at 80 Hz.
(§2) HEK293T/17 cells (ATCC) were cultured according to instructions in poly-D-lysine-coated 24-well CellBind plates (Corning) in Dulbecco's modified eagle medium (DMEM; Invitrogen) supplemented with 10% v/v fetal bovine serum (FBS; Invitrogen) and maintained at 37° C. in a humidified 5% CO2 v/v environment. Primary rat hippocampal neurons were prepared and cultured as described previously. Imaging buffer for HEK293T/17 cells consisted of Dulbecco's phosphate buffered saline (DPBS; Invitrogen). Imaging buffer for cultured neurons consisted of: 145 mM NaCl, 2.5 KCl, 10 mM glucose, 10 mM HEPES pH 7.4, 2 mM CaCl2, and 1 mM MgCl2. To load cells with the dosimeter, a stock solution of 403 (1 mM) in DMSO containing 10% w/v Pluronic F-127 (Sigma) was added to a final concentration of 10 μM in imaging buffer. Cells were incubated in this solution for 1 h at 37° C., after which the cells were washed with imaging buffer (3×) and imaged. The final imaging buffer wash for cultured neurons additionally contained pharmacological agents (10 μM CNQX, 10 μM (R)-CPP, 10 μM gabazine, and 1 mM (S)-MCPG; Tocris) to block spontaneous cellular activity.
(§3) Cells were imaged on a Olympus IX-81 microscope using a 10× or 20× objective and a DAPI filter set (Semrock DAPI-5060C-000; excitation: 352-402 nm, dichroic cutoff: 409 nm, emission: 417-477 nm) filtering a mercury arc lamp. Excitation/photoactivation light was attenuated using a neutral density filter giving a light intensity of 60 mW/cm^2. To raise intracellular calcium ion levels (FIGS. 19B, 21B, and 22B), cells were incubated with 10 μM ionomycin (Sigma) and 4 mM CaCl2 for 2 min prior to imaging.
Cultured neurons loaded with compound 403 were stimulated electrically to induce action potential firing at 80 Hz for one second prior to and during illumination with excitation/photoactivation light. A Grass S48 Stimulator (Grass Technologies) was used with a custom-built platinum wire field stimulation electrode.

[3] = tested on: cultured hippocampal neurons; assay: Live cell photoactivation imaging of neurons with or without ionomycin; assay type: cell-based, rat; conditions: for rate k of cellular fluorescence increase versus irradiation time: 10 μM, 1 h loading, 365 nm
Method: The utility of the embodied system was then observed in a cellular context. The hexa-acetoxymethyl (AM) ester 403 of compound 402 was prepared (FIG. 8). This membrane-permeant compound enabled loading of cultured hippocampal neurons with the light-gated chemodosimeter. The overlap of the photouncaging wavelength (λ=351 nm) and the excitation spectra (λmax=402 nm) of the coumarin allowed simultaneous imaging and activation with a single light source centered at 365 nm.
as §2, §3

[4] = Determination of Kd from fluorescence after photoactivation as a function of [Ca^2+]; assay type: binding; conditions: methoxy replaced with pyrrolidine, versus 402; readout not stated
Method: as §1
For [Ca^2+]<40 μM, the free calcium concentration was controlled by a commercial EGTA buffer system (Invitrogen). […] For [Ca^2+]>40 μM, buffers were prepared with 1 mM EGTA and excess CaCl2 in 30 mM MOPS pH 7.2 and 100 mM KCl. Different buffer solutions containing 100 nM of 402 or S13 were irradiated in clean glass vials for 1 min using the photoreactor setup described above. The samples were then transferred to a black, clear bottom, 96-well polystyrene microplate with a nonbinding surface coating (Corning). Fluorescence was read from the bottom on a FlexStation3 fluorescence microplate reader (Molecular Devices; for coumarin 402: λex/λem=402/447 nm; for Tokyo Green compound S13: λex/λem=496/520 nm). The plot of fluorescence vs. [Ca^2+] was fit to one site-specific binding curve to determine the Kd. Found: 28.3±0.6 μM (±SE) for 402 and 28.0±0.8. μM for S13.

photochemical quantum yield (Φ) in the presence of Ca^2+ [1]: 4.8% and 4.8±0.2%
photochemical quantum yield (Φ) in the absence of Ca^2+ [1]: 0.008% and 0.0079±0.0003%
enhancement in photochemical quantum yield upon Ca^2+ binding [1]: 600 fold
increase in absorption around 350 nm when calcium ion concentration is raised [2]: < 5%
visible absorption at 430 nm as [Ca^2+] increases [2]: dramatic decrease
extinction coefficient ([2]; at 350 nm): 24000 M⁻¹ cm⁻¹
SMILES: COc1ccc(N(CC(=O)O)CC(=O)O)c(OCCOc2cc([N+](=O)[O-])c(COc3ccc4cc(C(=O)NC5CCC(N(CC(=O)O)CC(=O)O)CC5)c(=O)oc4c3)cc2N(CC(=O)O)CC(=O)O)c1 (stereo not shown) [compound 402, 2,2′((2-(2-(2-(Bis(carboxymethyl)amino)-4-(((3-(((1r,4r)-4-(bis(carboxymethyl)amino)cyclohexyl)carbamoyl)-2-oxo-2H-chromen-7-yl)oxy)methyl)-5-nitrophenoxy)ethoxy)-4-methoxyphenyl)azanediyl)diacetic acid]
Ca^2+ dependence of uncaging photochemistry ([1]; fluorescence of released coumarin vs 365 nm irradiation time, 10 mM CaCl2 or 10 mM EGTA): efficient photochemistry was observed only in the presence of calcium

SMILES: COc1ccc(N(CC(=O)OCOC(C)=O)CC(=O)OCOC(C)=O)c(OCCOc2cc([N+](=O)[O-])c(COc3ccc4cc(C(=O)N[C@H]5CC[C@H](N(CC(=O)OCOC(C)=O)CC(=O)OCOC(C)=O)CC5)c(=O)oc4c3)cc2N(CC(=O)OCOC(C)=O)CC(=O)OCOC(C)=O)c1 [compound 403, Bis(acetoxymethyl) 2,2′-((2-(2-(2-(bis(2-(acetoxymethoxy)-2-oxoethyl)amino)-4-(((3-(((1r,4r)-4-(bis(2-(acetoxymethoxy)-2-oxoethyl)amino)cyclohexyl)carbamoyl)-2-oxo-2H-chromen-7-yl)oxy)methyl)-5-nitrophenoxy)ethoxy)-4-methoxyphenyl)azanediyl)diacetate]
permanent increase in cellular fluorescence (cultured neurons; field stimulation at 80 Hz): 200%
rate increase in cellular fluorescence relative to unstimulated cells (cultured neurons; field stimulation at 80 Hz): 4 fold
rate k of increase in cellular fluorescence versus irradiation time (cultured neurons; with field stimulation at 80 Hz): 0.133 s⁻¹
rate k of increase in cellular fluorescence versus irradiation time (cultured neurons; without electrical stimulation): 0.0325 s⁻¹
increase in the accumulation of cellular fluorescence ([3]; cells pretreated with ionomycin vs control cells): 40 fold
fluorescence increase on illumination of control cells ([3]; control cells without ionomycin): did not elicit significant fluorescence increase
rate k of cellular fluorescence increase versus irradiation time ([3]; ionomycin-treated neurons): 0.240 s⁻¹
rate k of cellular fluorescence increase versus irradiation time ([3]; untreated neurons): 0.0060 s⁻¹

photochemical quantum yield (Φ) in the presence of Ca^2+ [1]: 1.6% and 1.63±0.05%
photochemical quantum yield (Φ) in the absence of Ca^2+ [1]: 0.011% and 0.0110±0.0004%
enhancement in photochemical quantum yield upon Ca^2+ binding [1]: 150 fold
SMILES: COc1ccc(-c2c3ccc(=O)cc-3oc3cc(OCc4cc(N(CC(=O)O)CC(=O)O)c(OCCOc5cc(OC)ccc5N(CC(=O)O)CC(=O)O)cc4[N+](=O)[O-])ccc23)c(C)c1 [compound S13, 2,2′-((2-(2-(2-(Bis(carboxymethyl)amino)-4-(((9-(4-methoxy-2-methylphenyl)-3-oxo-3H-xanthen-6-yl)oxy)methyl)-5-nitrophenoxy)ethoxy)-4-methoxyphenyl)azanediyl)diacetic acid]

effect of the modification on calcium affinity [4]: did not increase
SMILES: O=C(O)CN(CC(=O)O)c1ccc(N2CCCC2)cc1OCCOc1cc([N+](=O)[O-])c(COc2ccc3cc(C(=O)NC4CCC(N(CC(=O)O)CC(=O)O)CC4)c(=O)oc3c2)cc1N(CC(=O)O)CC(=O)O (stereo not shown) [compound of FIG. 14, where R═H, 2,2′-((2-(2-(2-(Bis(carboxymethyl)amino)-4-(((3-(((1r,4r)-4-(bis(carboxymethyl)amino)cyclohexyl)carbamoyl)-2-oxo-2H-chromen-7-yl)oxy)methyl)-5-nitrophenoxy)ethoxy)-4-(pyrrolidin-1-yl)phenyl)azanediyl)diacetic acid]
